US20090053168A1, “TREATMENTS OF B-CELL PROLIFERATIVE DISORDERS” (priority 2007, published 2009)
Where two headings read alike, the source gives them in different places.

Columns and labels:
RPMI-8226 cells = assay: Anti-proliferation assay (ATPLite, 72 h), RPMI-8226; type: cell-based
H929 cells = assay: Anti-proliferation assay (ATPLite, 72 h), H929; type: cell-based
[1] = test system: Farage (non-Hodgkin's B cell lymphoma) cells; assay: Anti-proliferation assay (ATPLite, 72 h), Farage; type: cell-based; settings: x dexamethasone
[2] = test system: GA-10 (Burkitt's lymphoma) cells; assay: Anti-proliferation assay (ATPLite, 72 h), GA-10; type: cell-based; settings: x dexamethasone
MM.1S cells [3] = assay: Anti-proliferation assay (ATPLite, 72 h), MM.1S; settings: for IC50: 2-fold dilutions
MM.1S cells [4] = test system: MM.1S cells
OCI-ly10 DLBCL cells = assay: Anti-proliferation assay (ATPLite, 72 h), OCI-ly10; type: cell-based; settings: in combination with CGS-21680
Karpas 422 DLBCL cells = assay: Anti-proliferation assay (ATPLite, 72 h), Karpas 422; type: cell-based; settings: in combination with CGS-21680
SU-DHL6 DLBCL cells = assay: Anti-proliferation assay (ATPLite, 72 h), SU-DHL6; type: cell-based; settings: in combination with CGS-21680

With `OC[C@H]1O[C@H](n2cnc3c(NC4CC5CCC4C5)ncnc32)[C@H](O)[C@@H]1O` (stereo partly drawn) [(S)-ENBA, S-N^6-(2-endo-norbornyl)adenosine] the “Synergy score with dexamethasone, RPMI-8226” value (RPMI-8226 cells) was 8.64, the “Synergy score with dexamethasone, H929” value (H929 cells) was 7.82 and the synergy score [1] was 1.37. The synergy score [2] was 1.05, the “Synergy score with dexamethasone, MM.1S” value (MM.1S cells [3]) was 7.30 and the “percent inhibition of cell proliferation” value (MM.1S cells [3]; (S)-ENBA 0.173 μM alone) was 14%. For the same compound, the “percent inhibition of cell proliferation” value (MM.1S cells [3]; (S)-ENBA 0.519 μM alone) was 14%, the “percent inhibition of cell proliferation” value (MM.1S cells [3]; (S)-ENBA 1.56 μM alone) was 50% and the “percent inhibition of cell proliferation” value (MM.1S cells [3]; (S)-ENBA 4.67 μM alone) was 49%. For the same compound, the “percent inhibition of cell proliferation” value (MM.1S cells [3]; (S)-ENBA 14 μM alone) was 62%, the “activity and synergy in antiproliferation assays” value (MM.1S cells [3]; RPMI-8226, H929, MM.1S and MM.1R MM cell lines) was “active and synergistic” and the IC50 (MM.1S cells [3]; read-out: IC50 (+IL-6), MM.1S cells grown in presence of 10 ng/ml IL-6) was 1530 nM. For the same compound, the IC50 (MM.1S cells [3]; read-out: IC50 (no IL-6), MM.1S cells grown in absence of IL-6) was 2270 nM, the “Percent inhibition of cell growth by (S)-ENBA” value (shortened to “Percent inhibition … (S)-ENBA”) (MM.1S cells [4]; (s)-ENBA 0.17 μM, 78 nM SCH58261) was 4.5% and the “Percent inhibition … (S)-ENBA” value (MM.1S cells [4]; (s)-ENBA 0.17 μM, 175 nM MRS1754) was 9.3%. The “Percent inhibition … (S)-ENBA” value (MM.1S cells [4]; (s)-ENBA 0.17 μM, 178 nM DPCPX) was 2.4%, the “Percent inhibition … (S)-ENBA” value (MM.1S cells [4]; (s)-ENBA 0.17 μM, 183 nM MRS1523) was 10% and the “Percent inhibition … (S)-ENBA” value (MM.1S cells [4]; (s)-ENBA 0.17 μM, no antagonist) was 6%. For the same compound, the “Percent inhibition … (S)-ENBA” value (MM.1S cells [4]; (s)-ENBA 0.52 μM, 78 nM SCH58261) was 6%, the “Percent inhibition … (S)-ENBA” value (MM.1S cells [4]; (s)-ENBA 0.52 μM, 175 nM MRS1754) was 10% and the “Percent inhibition … (S)-ENBA” value (MM.1S cells [4]; (s)-ENBA 0.52 μM, 178 nM DPCPX) was 18%. For the same compound, the “Percent inhibition … (S)-ENBA” value (MM.1S cells [4]; (s)-ENBA 0.52 μM, 183 nM MRS1523) was 14%, the “Percent inhibition … (S)-ENBA” value (MM.1S cells [4]; (s)-ENBA 0.52 μM, no antagonist) was 19% and the “Percent inhibition … (S)-ENBA” value (MM.1S cells [4]; (s)-ENBA 1.6 μM, 78 nM SCH58261) was 14%. For the same compound, the “Percent inhibition … (S)-ENBA” value (MM.1S cells [4]; (s)-ENBA 1.6 μM, 175 nM MRS1754) was 50%, the “Percent inhibition … (S)-ENBA” value (MM.1S cells [4]; (s)-ENBA 1.6 μM, 178 nM DPCPX) was 37% and the “Percent inhibition … (S)-ENBA” value (MM.1S cells [4]; (s)-ENBA 1.6 μM, 183 nM MRS1523) was 36%. For the same compound, the “Percent inhibition … (S)-ENBA” value (MM.1S cells [4]; (s)-ENBA 1.6 μM, no antagonist) was 41%, the “Percent inhibition … (S)-ENBA” value (MM.1S cells [4]; (s)-ENBA 4.7 μM, 78 nM SCH58261) was 12% and the “Percent inhibition … (S)-ENBA” value (MM.1S cells [4]; (s)-ENBA 4.7 μM, 175 nM MRS1754) was 47%. The “Percent inhibition … (S)-ENBA” value (MM.1S cells [4]; (s)-ENBA 4.7 μM, 178 nM DPCPX) was 77%, the “Percent inhibition … (S)-ENBA” value (MM.1S cells [4]; (s)-ENBA 4.7 μM, 183 nM MRS1523) was 52% and the “Percent inhibition … (S)-ENBA” value (MM.1S cells [4]; (s)-ENBA 4.7 μM, no antagonist) was 52%. For the same compound, the “Percent inhibition … (S)-ENBA” value (MM.1S cells [4]; (s)-ENBA 14 μM, 78 nM SCH58261) was 45%, the “Percent inhibition … (S)-ENBA” value (MM.1S cells [4]; (s)-ENBA 14 μM, 175 nM MRS1754) was 71% and the “Percent inhibition … (S)-ENBA” value (MM.1S cells [4]; (s)-ENBA 14 μM, 178 nM DPCPX) was 89%. For the same compound, the “Percent inhibition … (S)-ENBA” value (MM.1S cells [4]; (s)-ENBA 14 μM, 183 nM MRS1523) was 65% and the “Percent inhibition … (S)-ENBA” value (MM.1S cells [4]; (s)-ENBA 14 μM, no antagonist) was 68%.
For `Cn1c2ccccc2c2c3c(c4c5ccccc5n(CCC#N)c4c21)CNC3=O` [Go 6976], the synergy score (OCI-ly10 DLBCL cells) was 1.61, the synergy score (Karpas 422 DLBCL cells) was 2.91 and the synergy score (SU-DHL6 DLBCL cells) was 3.69.
